Measurements from patent US6060472A, “Thiadiazole compounds useful as inhibitors of H^+ /K^+ atpase” (Apotex Inc., priority 1998, dated 2000).

Experiments:
[1] = system: isolated murine gastric glands of mouse (acid secretion); test: In vitro inhibition of gastric acid secretion (14C-aminopyrine accumulation in isolated mouse gastric glands); type: cell-based; details: 1 h, 60 min at 37 °C, secretagogue stimulated
Description: In Vitro Inhibition of Gastric Acid Secretion by Compounds of Formula I
Acid secretion is measured indirectly by the accumulation of the weak base ^14 C-aminopyrine in the isolated murine gastric glands of mouse. The assay is performed in polypropylene eppendorf tubes containing 0.5 mL of resuspended mouse gastric glands. In addition, tubes contain the tested drug, acid secretagogues (e.g. histamine, di-butyryl cyclic AMP (cAMP), carbachol) and ^14 C-aminopyrine. Tubes are incubated for 60 min. at 37 ° C. and continuously rotated. The reaction is stopped by centrifugation of the gland suspension for five min. at 1500 g. Supernatant is aspirated leaving the pellet containing intact gastric glands. The pellet is washed extensively and digested overnight in 1 mL of Protosol (Amersham). After neutralisation with acetic acid and addition of scintillation fluid, the radioactivity is counted in a beta-counter (Beckman). The amount of radioactivity trapped in the pellet corresponds directly with the amount of acid being secreted. Each experimental point is done in triplicate. In each experiment, energy independent consumption was estimated with 0.1 mM of dinitrophenol and basal acid secretion in the absence of acid stimulants. These values were then subtracted from corresponding results in order to calculate basal or secretagogue stimulated acid secretion.
Mouse glands respond to a variety of conventional secretagogues and post-receptor mediators but not to gastrin. The maximum stimulation of acid secretion is achieved with 1 mM cAMP, 0.1 mM histamine, 0.1 mM IBMX, 10 μM carbachol, 10 μM forskolin, 10 μM calcium ionophore A23187, 1 μM thapsigarin. Each experiment is repeated a number of times and all results are expressed as a % of the maximum stimulation. For the purpose of comparing the relative potency of the compounds, each experiment contains positive controls using omeprazole for post-receptor/cAMP mediated responses and ranitidine which inhibits histamine mediated acid secretion.
Using the above procedure, the IC50 value for these compounds were as follows: […]

[2] = system: gastric acid secretion; test: Gastric secretion study in rat (pylorus ligation); type: in vivo, Male Sprague-Dawley rats; details: oral gavage, pylorus-ligated rat, 2 hours post ligation; for Average total gastric contents: Control 2.5; for Average total acid output: Control 298
Description: Gastric Secretion Study in Rat The objective of the study was to establish the antisecretory effects of two experimental compounds compared to Omeprazole. Male Sprague-Dawley rats (110 to 140 g in weight) were ordered from Ace Animals, Inc., Boyertown Pa. and were randomized into […] groups. The Control animals were administered carboxymethylcellulose (CMC) as the treated groups were administered the test materials in a suspension of CMC. Two groups were allotted to a reference standard of Omeprazole and were administered doses of 2 and 8 mg/kg. The other 4 dose groups were allotted to the 2 experimental compounds at doses of 8 and 32 mg/kg. All test materials were administered by oral gavage as this is the intended route in humans. Each animal was dosed using a stainless steel ball-tipped gavage needle attached to an appropriate size syringe. All doses administered were based on fasted body weights taken prior to the dosing. Two hours post drug administration, the animals were anesthetized using a short acting general anesthetic (Methoxital Sodium). The midline incision was made and the gastric duodenal area exposed. A ligature of thread was placed around the pylorus and tied tightly. This ligature around the pylorus stimulates the production of gastric acid. The incision was closed post ligation and the animal was replaced in its cage without access of food or water. All rats were euthanized 2 hours post pylorus ligation using an overdose of sodium pentobarbital. The esophagus was ligated and the intact stomach was removed and opened along the great curvature. Gastric contents were collected in a plastic cup and transferred to a 15 ml conical tube. The contents were centrifuged for approximately 10 minutes. The supernatant was decanted and the volume was measured to the nearest tenth of a milliliter. 1 ml of the gastric contents were pipetted into 4 ml of distilled water and titrated with 0.01 N sodium hydroxide to a pH of 7.0. The acidity was measured by titration and the total acid output calculated.

Row | Structure (SMILES) | IC50 [1] | Average total gastric contents ([2]; 8 mg/kg) | Average total acid output ([2]; 8 mg/kg) | Average total gastric contents ([2]; 32 mg/kg) | Average total acid output ([2]; 32 mg/kg) | Average total gastric contents ([2]; 2 mg/kg) | Average total acid output ([2]; 2 mg/kg)
1 | OC(c1ccccc1)c1nsc(N2CCN(c3ccccn3)CC2)n1 (stereo not drawn) [3-(1-hydroxy-1-phenylmethyl)-5-{4-[pyridin-2-yl]-piperazin-1-yl}-1,2,4-thiadiazole] | 30 µM | – | – | – | – | – | –
2 | O=C(c1ccccc1)c1nsc(N2CCN(C(c3ccccc3)c3ccc(Cl)cc3)CC2)n1 (stereo not drawn) [3-benzoyl-5-{4-[1-phenyl-1-(4-chlorophenyl)methyl]piperazin-1-yl}-1,2,4-thiadiazole] | 50 µM | – | – | – | – | – | –
3 | COc1nsc(N2CCN(c3ccccn3)CC2)n1 [3-methoxy-5-{4-[pyridin-2-yl]-piperazin-1-yl}-1,2,4-thiadiazole] | 100 µM | – | – | – | – | – | –
4 | COc1ccc2[nH]c([S+]([O-])Cc3ncc(C)c(OC)c3C)nc2c1 (stereo not drawn) [Omeprazole, reference compound] | – | 1.9 mL | 164 µEq | – | – | 2.2 mL | 296 µEq

More lines, main results first:

Row | IC50 [1] | Structure (SMILES) | Average total gastric contents ([2]; 8 mg/kg) | Average total acid output ([2]; 8 mg/kg) | Average total gastric contents ([2]; 32 mg/kg) | Average total acid output ([2]; 32 mg/kg) | Average total gastric contents ([2]; 2 mg/kg) | Average total acid output ([2]; 2 mg/kg)
5 | 25 µM | O=C(c1cccc(Cl)c1)c1nsc(N2CCN(c3ccccn3)CC2)n1 [3-(3-chlorobenzoyl)-5-{4-[pyridin-2-yl]-piperazin-1-yl}-1,2,4-thiadiazole] | 1.9 mL | 159 µEq | 2.9 mL | 271 µEq | – | –
6 | 6 µM | O=C(c1ccccc1)c1nsc(N2CCN(c3ccccn3)CC2)n1 [3-benzoyl-5-{4-[pyridin-2-yl]-piperazin-1-yl}-1,2,4-thiadiazole] | – | – | – | – | – | –
7 | 4 µM | c1ccc(-c2nsc(N3CCN(c4ccccn4)CC3)n2)cc1 [3-phenyl-5-{4-[pyridin-2-yl]-piperazin-1-yl}-1,2,4-thiadiazole] | 2.2 mL | 223 µEq | 1.2 mL | 100 µEq | – | –
